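Protocol summary: plate cells (96-well), add compound at 5 concentrations, incubate 48 h, interpolate endpoints linearly. The concentration for 50% growth inhibition is given as GI50.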 Active and inactive are the calls of the source. No stated cut-off is given here; in the data, active = GI50 up to about 1.1 µM and inactive = higher.
Legend:
Test in all cases: growth of human tumour cells (NCI), 48 h
SF-295 = test system: SF-295
HCT-116 = test system: HCT-116
EKVX = test system: EKVX
MDA-MB-435 = test system: MDA-MB-435
ACHN = test system: ACHN
Malme-3M = test system: Malme-3M
KM12 = test system: KM12
OVCAR-8 = test system: OVCAR-8
SK-OV-3 = test system: SK-OV-3
SF-268 = test system: SF-268
COLO 205 = test system: COLO 205
NCI/ADR-RES = test system: NCI/ADR-RES
RXF 393 = test system: RXF 393
LOX IMVI = test system: LOX IMVI
HCC 2998 = test system: HCC 2998
SK-MEL-5 = test system: SK-MEL-5
SK-MEL-2 = test system: SK-MEL-2
HOP-92 = test system: HOP-92
MOLT-4 = test system: MOLT-4

Row | Structure (SMILES) | GI50 (SF-295) | GI50 (HCT-116) | GI50 (EKVX) | GI50 (MDA-MB-435) | GI50 (ACHN) | GI50 (Malme-3M) | GI50 (KM12) | GI50 (OVCAR-8) | GI50 (SK-OV-3) | GI50 (SF-268) | GI50 (COLO 205) | GI50 (NCI/ADR-RES) | GI50 (RXF 393) | GI50 (LOX IMVI) | GI50 (HCC 2998) | GI50 (SK-MEL-5) | GI50 (SK-MEL-2) | GI50 (HOP-92) | GI50 (MOLT-4)
1 | Nc1nc(SCc2ccccn2)c2ncn(C3CCCC3)c2n1 | > 100 µM (inactive) | > 100 µM (inactive) | > 100 µM (inactive) | > 100 µM (inactive) | > 100 µM (inactive) | 82 µM (inactive) | > 100 µM (inactive) | > 100 µM (inactive) | > 100 µM (inactive) | 70.5 µM (inactive) | > 100 µM (inactive) | > 100 µM (inactive) | > 100 µM (inactive) | > 100 µM (inactive) | > 100 µM (inactive) | > 100 µM (inactive) | > 100 µM (inactive) | – | –
2 | CC(C)=NN/C(=N\c1ccc(Cl)cc1)NS(=O)(=O)c1ccc(C)cc1 | 35.2 µM (inactive) | 76.4 µM (inactive) | 52.6 µM (inactive) | 92.9 µM (inactive) | 40.5 µM (inactive) | 61.2 µM (inactive) | 85.7 µM (inactive) | > 100 µM (inactive) | – | 60 µM (inactive) | > 100 µM (inactive) | 69.3 µM (inactive) | – | 87.7 µM (inactive) | – | 60.3 µM (inactive) | 73.1 µM (inactive) | 38.8 µM (inactive) | 41.5 µM (inactive)
3 | COc1ccc2c3c1OC1C(OC)(OC)CC4(C=C2)CN(C)CCC314 (stereo not drawn) | > 100 µM (inactive) | > 100 µM (inactive) | > 100 µM (inactive) | > 100 µM (inactive) | > 100 µM (inactive) | > 100 µM (inactive) | > 100 µM (inactive) | > 100 µM (inactive) | > 100 µM (inactive) | > 100 µM (inactive) | > 100 µM (inactive) | > 100 µM (inactive) | > 100 µM (inactive) | > 100 µM (inactive) | > 100 µM (inactive) | > 100 µM (inactive) | – | – | > 100 µM (inactive)
4 | COc1cccc(-c2nc(-c3cnccn3)n(C3OC(CO)C(O)C3O)n2)c1 (stereo not drawn) | > 100 µM (inactive) | > 100 µM (inactive) | > 100 µM (inactive) | > 100 µM (inactive) | – | – | > 100 µM (inactive) | > 100 µM (inactive) | > 100 µM (inactive) | > 100 µM (inactive) | > 100 µM (inactive) | > 100 µM (inactive) | – | > 100 µM (inactive) | > 100 µM (inactive) | > 100 µM (inactive) | – | > 100 µM (inactive) | > 100 µM (inactive)
5 | CNC(=O)NS(=O)(=O)c1ccc(C)cc1.NS(=O)O | > 100 µM (inactive) | > 100 µM (inactive) | – | – | > 100 µM (inactive) | > 100 µM (inactive) | > 100 µM (inactive) | > 100 µM (inactive) | > 100 µM (inactive) | > 100 µM (inactive) | > 100 µM (inactive) | > 100 µM (inactive) | > 100 µM (inactive) | > 100 µM (inactive) | – | > 100 µM (inactive) | > 100 µM (inactive) | > 100 µM (inactive) | > 100 µM (inactive)
6 | Cc1nc2ccc(Cl)cc2c2c1CCS2 | > 100 µM (inactive) | 41.1 µM (inactive) | – | 68.5 µM (inactive) | 45.1 µM (inactive) | 90.2 µM (inactive) | > 100 µM (inactive) | 92 µM (inactive) | > 100 µM (inactive) | 56.5 µM (inactive) | 48.9 µM (inactive) | 51.4 µM (inactive) | 47.5 µM (inactive) | 38 µM (inactive) | 77.4 µM (inactive) | 27.6 µM (inactive) | 57.9 µM (inactive) | – | 19.5 µM (inactive)
7 | O=C(/C=C/c1ccccc1)CSc1nc[nH]n1 | 81.1 µM (inactive) | 33 µM (inactive) | > 100 µM (inactive) | – | > 100 µM (inactive) | > 100 µM (inactive) | > 100 µM (inactive) | > 100 µM (inactive) | > 100 µM (inactive) | > 100 µM (inactive) | > 100 µM (inactive) | > 100 µM (inactive) | > 100 µM (inactive) | – | > 100 µM (inactive) | 38.5 µM (inactive) | > 100 µM (inactive) | – | 63.2 µM (inactive)
8 | CC(=O)c1c(O)ccc2c1c1c(n2C)C(=O)c2ccccc2C1=O | 6.92 µM (inactive) | 3.01 µM (inactive) | 3.24 µM (inactive) | – | – | 0.0128 µM (active) | – | 5.3 µM (inactive) | 2.84 µM (inactive) | 1.86 µM (inactive) | > 100 µM (inactive) | – | 3.84 µM (inactive) | 3.24 µM (inactive) | 0.0114 µM (active) | 3.29 µM (inactive) | > 100 µM (inactive) | – | 4.42 µM (inactive)
